Test results taken from publication PMC10044640, “Antimicrobial Peptides Designed against the Ω-Loop of Class A β-Lactamases to Potentiate the Efficacy of β-Lactam Antibiotics” (Antibiotics, 2023).
Like-named read-outs stand apart in the source and are kept apart here.

What was measured:
[1] = biological target: T1, TEM-1 (Escherichia coli, UniProt P62593); experiment: Kinetics of β-lactam hydrolysis with or without peptides; format: biochemical
T1 construct: The full-length constructs (blaSHV-14 and blaTEM-1) were cloned and expressed in pBAD18-Cam (Cam^R) vector; 6xHis (N); made in house; host or cells: E. coli BL21 (DE3) pLysS, pET28a(+)
T1 sequence (P62593 24-286 limits assumed): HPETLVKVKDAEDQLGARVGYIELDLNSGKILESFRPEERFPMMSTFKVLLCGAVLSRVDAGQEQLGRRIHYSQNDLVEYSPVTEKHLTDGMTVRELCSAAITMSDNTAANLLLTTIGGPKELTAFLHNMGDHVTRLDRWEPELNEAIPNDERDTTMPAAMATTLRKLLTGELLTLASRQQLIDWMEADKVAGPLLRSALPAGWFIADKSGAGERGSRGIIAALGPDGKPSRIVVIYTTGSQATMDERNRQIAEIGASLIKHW
Method: (§1) The N-terminal 6X histidine-tagged proteins (SHV-14 and TEM-1) were expressed from the respective plasmid constructs already available in the laboratory and were purified by Ni-NTA affinity chromatography using an AKTA prime plus (GE Healthcare, Piscataway, NJ, USA) as described previously. Nitrocefin hydrolysis was used to validate the β-lactamase activity of both proteins.
(§2) Assessment of enzyme activities was carried out by calculating the kinetic parameters [Michaelis–Menten constants (Km and Vmax), turn-over number (kcat), and catalytic efficiency (kcat/Km)] with various β-lactam substrates in the presence of the peptides as described previously. The hydrolysis reaction was carried out at 25 °C in 10 mM Tris-HCl, 300 mM NaCl (pH 7.5) buffer supplemented with 1 μg mL^−1 bovine serum albumin for protein stability. The enzyme concentrations (0.46 μM: SHV-14 and 0.42 μM: TEM-1) were taken to determine the initial rate constants at varying substrate concentrations (20–500 μM). The values were calculated using the online curve-fitting tool (https://www.mycurvefit.com, MyAssays Ltd., Brighton, UK, accessed on 25 May 2022).

[2] = system: E. coli CS109; experiment: HT-SPOTi MIC of β-lactams with or without peptides; format: cell-based, Escherichia coli; details: for MIC Value Antibiotics, β-lactam alone: E. coli CS109, no peptide, HT-SPOTi agar, ~10^3 CFU/well, triplicate
[3] = system: K. pneumoniae; experiment: HT-SPOTi MIC of β-lactams with or without peptides; format: cell-based, Klebsiella pneumoniae; details: for MIC Value Antibiotics, β-lactam alone: K. pneumoniae, no peptide, triplicate
[4] = system: E. coli CS109 + pBAD-SHV-14; format: cell-based, Escherichia coli; details: E. coli CS109 + pBAD-SHV-14 (arabinose-induced), no peptide; HT-SPOTi
[5] = system: SHV-14; experiment: Kinetics of β-lactam hydrolysis with or without peptides; format: biochemical, Klebsiella pneumoniae; details: SHV-14 0.46 μM, no peptide, 25 °C; for Km: 10 mM Tris-HCl, 300 mM NaCl pH 7.5, 1 μg/mL BSA, substrate 20–500 μM, read-out: Km, β-lactam substrate alone; for kcat, β-lactam substrate alone: pH 7.5
Method: as §1, §2

[6] = system: E. coli CS109; experiment: Broth microdilution MIC; format: cell-based, Escherichia coli; details: E. coli CS109, no peptide; broth microdilution (CLSI), MHB, ~10^5 cells/well, OD600; triplicate
[7] = system: M. smegmatis MC2 155; experiment: HT-SPOTi MIC of β-lactams with or without peptides; format: cell-based, Mycobacterium smegmatis; details: no peptide, triplicate
[8] = system: E. coli CS109 + pBAD-TEM1; format: cell-based, Escherichia coli; details: CS109 + pBAD-TEM1, no peptide; broth microdilution, MHB, ~10^5 cells/well, OD600
[9] = system: E. coli CS109 + pBAD-TEM1; format: cell-based, Escherichia coli; details: E. coli CS109 + pBAD-TEM1 (arabinose-induced), no peptide; HT-SPOTi
[10] = system: E. coli CS109 + pBAD-SHV-14; format: cell-based, Escherichia coli
[11] = system: M. tuberculosis H37Rv; experiment: HT-SPOTi MIC of ampicillin with or without peptides; format: cell-based; details: Mycobacterium tuberculosis, MTB H37Rv, control row of Table S2, read-out: MIC value, control drug
[12] = system: Gram-negative strains (E. coli CS109, K. pneumoniae); experiment: HT-SPOTi, cephalosporins with peptides; format: cell-based, Escherichia coli; Klebsiella pneumoniae; details: strain not given
Method: HT-SPOTi (high-throughput spot culture growth inhibition) assay was used to evaluate the whole cell phenotypic effect of peptides against a selection of Gram-negative and acid-fast bacterial strains in the presence of β-lactam antibiotics as previously described. The distribution of the molten agar media into the 96 wells was achieved using the Multidrop Combi microplate dispenser (Thermo-Fisher Scientific). Plates were left for 5 min for the agar to set, and a diluted inoculum of bacteria was applied (2 µL of ∼10^3 CFU) into each well by either the use of a multi-channel pipettor or by using the Multidrop Combi. DMSO was taken as no antibiotic control and kanamycin as non-β-lactam drug control. Unless otherwise specified, all the experiments were performed in triplicate.
To check the inhibitory activity of peptides and comprehend particular structure–activity relationships, HT-SPOTi assay was performed. The whole-cell phenotypic effect of the 10 pentapeptides was ascertained in combination with β-lactam antibiotics in E. coli CS109 and K. pneumoniae.

[13] = system: CCN1CCN(C(=O)N[C@@H](C(=O)N[C@@H]2C(=O)N3[C@@H]2SC(C)(C)[C@@H]3C(=O)O)c2ccccc2)C(=O)C1=O; experiment: Kinetics of β-lactam hydrolysis with or without peptides; format: biochemical, Escherichia coli; details: other: TEM-1 0.42 μM, no peptide, 25 °C, 10 mM Tris-HCl, 300 mM NaCl pH 7.5, 1 μg/mL BSA, substrate 20–500 μM
Method: as §1, §2

[14] = system: CC1(C)S[C@@H]2[C@H](NC(=O)[C@H](N)c3ccc(O)cc3)C(=O)N2[C@H]1C(=O)O; experiment: as above; format: biochemical, Escherichia coli; details: other: TEM-1 0.42 μM, no peptide, 25 °C, 10 mM Tris-HCl, 300 mM NaCl pH 7.5, 1 μg/mL BSA, substrate 20–500 μM
Method: as §1, §2

[15] = TEM-1 0.42 μM, no peptide; 25 °C, pH 7.5
[16] = CS109 + pBAD-SHV-14, no peptide, broth microdilution, MHB, ~10^5 cells/well, OD600

Row | Compound | MIC Value Antibiotics, β-lactam alone [2] | MIC Value Antibiotics, β-lactam alone [3] | Km [5] | kcat, β-lactam substrate alone [5] | MIC Value of Antibiotics, β-lactam alone [6] | MIC Value of Antibiotics, β-lactam alone [9] | levels of resistance to the cephalosporin with peptides [12] | also measured
1 | CC1(C)S[C@@H]2[C@H](NC(=O)[C@H](N)c3ccccc3)C(=O)N2[C@H]1C(=O)O [Amp, Ampicillin] | 4 µg/mL | 32 µg/mL | 187 ± 12.2 µM | 644.95 ± 10.97 s⁻¹ | 8 µg/mL | 16 µg/mL |  | kcat, β-lactam substrate alone [1, 15]: 290 ± 85.55 s⁻¹; Km ([1]; read-out: Km, β-lactam substrate alone; TEM-1 0.42 μM, no peptide; 25 °C, 10 mM Tris-HCl, 300 mM NaCl pH 7.5, 1 μg/mL BSA; substrate 20–500 μM): 66 ± 12.2 µM; MIC Value of Antibiotics, β-lactam alone [4]: 32 µg/mL; MIC Value Antibiotics, β-lactam alone [7]: 4 µg/mL; MIC Value of Antibiotics, β-lactam alone [8]: 32 µg/mL; MIC Value of Antibiotics, β-lactam alone [10, 16]: 64 µg/mL
2 | CC1(C)S[C@@H]2[C@H](NC(=O)[C@H](N)c3ccc(O)cc3)C(=O)N2[C@H]1C(=O)O [Amx, Amoxicillin] | 8 µg/mL | 64 µg/mL | 112 ± 12.2 µM | 416.95 ± 5.02 s⁻¹ | 16 µg/mL | 32 µg/mL |  | MIC Value Antibiotics, β-lactam alone [7]: 2 µg/mL; MIC Value of Antibiotics, β-lactam alone [8]: 64 µg/mL
3 | NNC(=O)c1ccncc1 [Isoniazid] |  |  |  |  |  |  |  | MIC [11]: 2 µg/mL
4 | NC[C@H]1O[C@H](O[C@H]2[C@H](O)[C@@H](O[C@H]3O[C@H](CO)[C@@H](O)[C@H](N)[C@H]3O)[C@H](N)C[C@@H]2N)[C@H](O)[C@@H](O)[C@@H]1O [Kanamycin] |  |  |  |  |  |  |  | MIC Value, non-β-lactam drug control ([2]; Table 4 control row, construct not given, one value under each column Pen, Amp, Amx, Pip, HT-SPOTi): 64 µg/mL; MIC Value, non-β-lactam drug control ([3]; Table 3b control row, one value printed under each column Pen, Amp, Amx, Pip): 64 µg/mL
5 | CCN1CCN(C(=O)N[C@@H](C(=O)N[C@@H]2C(=O)N3[C@@H]2SC(C)(C)[C@@H]3C(=O)O)c2ccccc2)C(=O)C1=O [Pip, Piperacillin] | 16 µg/mL | 64 µg/mL | 98.7 ± 12.2 µM | 432.09 ± 5.97 s⁻¹ | 16 µg/mL | 64 µg/mL |  | MIC Value of Antibiotics, β-lactam alone [4]: 64 µg/mL; MIC Value Antibiotics, β-lactam alone [7]: >250 µg/mL; MIC Value of Antibiotics, β-lactam alone [8]: 125 µg/mL; MIC Value of Antibiotics, β-lactam alone [10, 16]: 125 µg/mL
6 | N[C@@H](C(=O)N[C@@H]1C(=O)N2C(C(=O)O)=C(Cl)CS[C@H]12)c1ccccc1 [cefaclor] |  |  |  |  |  |  | remained unaltered | 
7 | CC1=C(C(=O)O)N2C(=O)[C@@H](NC(=O)[C@H](N)c3ccc(O)cc3)[C@H]2SC1 [cefadroxil] |  |  |  |  |  |  | remained unaltered | 
8 | CO/N=C(\C(=O)N[C@@H]1C(=O)N2C(C(=O)[O-])=C(C[N+]3(C)CCCC3)CS[C@H]12)c1csc(N)n1 [cefepime] |  |  |  |  |  |  | remained unaltered | 
9 | CCN1CCN(C(=O)N[C@@H](C(=O)N[C@@H]2C(=O)N3C(C(=O)O)=C(CSc4nnnn4C)CS[C@H]23)c2ccc(O)cc2)C(=O)C1=O [cefoperazone] |  |  |  |  |  |  | remained unaltered | 
10 | CC(C)(O/N=C(\C(=O)N[C@@H]1C(=O)N2C(C(=O)[O-])=C(C[n+]3ccccc3)CS[C@H]12)c1csc(N)n1)C(=O)O [ceftazidime] |  |  |  |  |  |  | remained unaltered | 
11 | Penicillin | 32 µg/mL | 32 µg/mL | 144 ± 4.43 µM | 586.95 ± 15.97 s⁻¹ | 64 µg/mL | 64 µg/mL |  | Km ([1]; TEM-1 0.42 μM, no peptide; 25 °C, 10 mM Tris-HCl, 300 mM NaCl pH 7.5, 1 μg/mL BSA; substrate 20–500 μM; read-out: Km, β-lactam substrate alone): 67.2 ± 4.43 µM; kcat, β-lactam substrate alone [1, 15]: 386.95 ± 15.97 s⁻¹; MIC Value of Antibiotics, β-lactam alone [4]: 250 µg/mL; MIC Value of Antibiotics, β-lactam alone [10]: 500 µg/mL
12 | TEM-1 (Escherichia coli) |  |  |  |  |  |  |  | Km [13]: 136.32 ± 12.16 µM; kcat [13]: 331 ± 12.2 s⁻¹; Km [14]: 105.09 ± 12.16 µM; kcat [14]: 427 ± 21 s⁻¹
